Assay results published in patent US6353022B1, “Compositions containing hydroxyeicosatetraenoic acid derivatives and methods of use in treating dry eye disorders” (Alcon Universal Ltd., priority 1999, dated 2002).

System: corneal injury induced by dry eye conditions
Assay: in vivo desiccation model of dry eye (methylene blue corneal staining, absorbance at 660 nm)
Design: species or system rabbit
Conditions: 15(S)-HETE 1 μM (0.000034% w/v), 50 μL topical O.D., 4-hour desiccation
Experimental: A composition of the present invention (Example 1, with the compound of formula (III) being 15(S)-HETE) was compared to an analogous composition without ethanol, an analogous composition without 15(S)-HETE, and analogous compositions with approximately one-half, one-tenth, and twice the amount of ethanol, respectively, in an in vivo desiccation model of dry eye.
Briefly, the assay was performed by first anesthetizing the animals with ketamine/xylazine/glycopyrrolate. The O.S. eye was lubricated with DuraTears® and remained taped shut throughout the experiment. The O.D. eye was then dosed with 50 μL of test composition (Example 1) or 50 μL of the same composition without ethanol and the eye taped shut for 10 minutes. The tape was then removed, the eyelids opened and a speculum was inserted into the eye. The eye was held open with the speculum for a period of 4 hours. During this time, the animals were monitored every 15 minutes and supplemental injections of ketamine/xylazine (at half the initial dose/injection) were administered as needed to maintain anesthesia. At the end of the 4-hour period, 2 sutures were placed in the upper eyelid and 1 suture was placed in the lower eyelid. A corneal/conjunctival cup was formed by using the sutures to lift the eyelids upward and the sutures taped to a stand. 1 mL methylene blue (1% solution in water) was added to the conjunctival cup and the cornea was stained with the solution for 5 minutes. The eye was then washed with 200 mL of a balanced salt solution. Corneal thickness was determined by non-invasive pachymetry. Three readings were taken for each animal. Corneal staining score was obtained by visualizing the cornea with a slit-lamp and determining the percentage of the cornea that was stained with methylene blue. A photograph was taken using the slit-lamp machine. The rabbit was then euthanized immediately by intravenous injection of Sleepaway® solution and the eye was excised. The cornea was isolated and an 8 mm punch of the central cornea collected. This corneal punch was placed in a small glass vial containing 2 mL acetone/saturated sodium sulfate (7:3, vol/vol). Absorbance of the extracted solution was measured at 660 nm with a spectrophotometer.
The naïve control animals were anesthetized with ketamine/xylazine/glycopyrrolate and the O.S. eye lubricated and taped shut. Sutures were immediately placed in the O.D. eyelids. The corneal cup was formed and the cornea was stained with methylene blue, washed with a balanced salt solution and collected, as described above. The data were converted to “percent protection” by subtracting from 1, the quotient of the test sample absorbances divided by the average of control sample absorbance, and multiplying by 100. The results are contained in Table 1 and illustrated in FIGS. 1 and 2: […]

CCCCC[C@H](O)/C=C/C=C\C/C=C\C/C=C\CCCC(=O)O [15(S)-HETE, 5,8,11,13-Eicosatetraenoic acid, 15-hydroxy-, [15S-(5Z,8Z,11Z,13E)]-]
% Protection (Ethanol 0.0 % (w/v)): 13%
% Protection (Ethanol 0.00505 % (w/v)): 2%
% Protection (Ethanol 0.0252 % (w/v), p < 0.05 versus control): 42%
% Protection (Ethanol 0.0505 % (w/v) (composition of Example 1), p < 0.05 versus control): 60%
% Protection (Ethanol 0.101 % (w/v)): 31%
